From ChEMBL document CHEMBL5352398 (Eur J Med Chem, 2022)
The source made the active and inactive calls. The calls are words filed in the database; no cut-off is given here.

What was measured:
[1] = target: T1, Solute carrier family 2, facilitated glucose transporter member 9 (Mus musculus) (UniProt Q3T9X0); assay: Inhibition of mouse GLUT9 transfected in human HEK293 cells assessed as inhibition of uric acid induced current at 10 uM by cell patch-clamp assay; format: cell-based
T1 sequence (whole entry): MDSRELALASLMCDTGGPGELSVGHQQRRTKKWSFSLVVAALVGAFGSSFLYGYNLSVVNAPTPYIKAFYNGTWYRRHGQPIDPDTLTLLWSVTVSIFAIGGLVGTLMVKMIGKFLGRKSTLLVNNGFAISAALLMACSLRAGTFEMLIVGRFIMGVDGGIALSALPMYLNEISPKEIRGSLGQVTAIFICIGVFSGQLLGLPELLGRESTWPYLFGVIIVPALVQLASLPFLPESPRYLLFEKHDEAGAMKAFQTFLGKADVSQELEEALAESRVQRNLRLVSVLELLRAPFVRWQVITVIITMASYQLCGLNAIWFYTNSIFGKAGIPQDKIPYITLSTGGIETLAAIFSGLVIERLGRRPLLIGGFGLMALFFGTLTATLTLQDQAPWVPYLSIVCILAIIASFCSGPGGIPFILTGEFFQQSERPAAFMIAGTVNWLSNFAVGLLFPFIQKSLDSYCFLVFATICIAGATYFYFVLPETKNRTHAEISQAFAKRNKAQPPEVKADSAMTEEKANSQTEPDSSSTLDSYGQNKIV

[2] = Hepatotoxicity in Kunming mouse assessed as increase in AST level in serum at 50 mg/kg,po for 14 days in presence of BSO; format: toxicity, organism-based; conditions: in vivo, 336 h, time 14 day
[3] = target: T2, Broad substrate specificity ATP-binding cassette transporter ABCG2 (Homo sapiens, UniProt Q9UNQ0); assay: Inhibition of ABCG2 (unknown origin) transfected in HEK293 cell membrane vesicle assessed as inhibition of 14C-uric acid uptake incubated for 15 mins in presence of ATP by liquid scintillation counter analysis; format: cell membranes
T2 sequence (Q9UNQ0 whole entry): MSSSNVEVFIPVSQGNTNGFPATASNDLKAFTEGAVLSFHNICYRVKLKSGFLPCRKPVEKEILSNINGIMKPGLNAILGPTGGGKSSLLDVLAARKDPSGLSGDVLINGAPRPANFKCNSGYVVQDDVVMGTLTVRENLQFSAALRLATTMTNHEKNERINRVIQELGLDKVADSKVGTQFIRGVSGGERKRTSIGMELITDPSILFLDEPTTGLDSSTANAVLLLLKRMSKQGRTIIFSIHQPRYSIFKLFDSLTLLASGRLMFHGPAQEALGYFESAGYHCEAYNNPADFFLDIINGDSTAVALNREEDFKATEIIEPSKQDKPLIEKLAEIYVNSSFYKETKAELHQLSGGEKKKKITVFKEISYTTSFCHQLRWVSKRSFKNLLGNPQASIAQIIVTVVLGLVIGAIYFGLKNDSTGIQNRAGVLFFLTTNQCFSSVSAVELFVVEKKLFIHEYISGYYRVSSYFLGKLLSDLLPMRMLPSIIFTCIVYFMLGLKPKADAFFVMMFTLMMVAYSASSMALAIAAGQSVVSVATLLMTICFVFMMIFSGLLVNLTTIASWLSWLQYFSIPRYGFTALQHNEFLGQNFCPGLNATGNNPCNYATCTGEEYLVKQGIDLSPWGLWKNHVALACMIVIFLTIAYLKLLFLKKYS

[4] = Tmax in Sprague-Dawley rat at 5 mg/kg, po and measured upto 24 hrs by LC-MS/MS analysis; format: ADME, organism-based; conditions: in vivo
[5] = Tmax in Sprague-Dawley rat at 5 mg/kg, iv and measured upto 24 hrs by LC-MS/MS analysis; format: ADME, organism-based; conditions: in vivo
[6] = Half life in Sprague-Dawley rat at 5 mg/kg, po and measured upto 24 hrs by LC-MS/MS analysis; format: ADME, organism-based; conditions: in vivo
[7] = MRT (0 to infinity) in Sprague-Dawley rat at 5 mg/kg, po and measured upto 24 hrs by LC-MS/MS analysis; format: ADME, organism-based; conditions: in vivo
[8] = MRT (0 to infinity) in Sprague-Dawley rat at 5 mg/kg, iv and measured upto 24 hrs by LC-MS/MS analysis; format: ADME, organism-based; conditions: in vivo
[9] = Oral bioavailability in Sprague-Dawley rat at 5 mg/kg and measured upto 24 hrs by LCMS analysis; format: ADME, organism-based; conditions: in vivo
[10] = Cytotoxicity against human HK-2 cells assessed as inhibition of cell growth at 400 uM incubated for 72 hrs by MTT assay relative to control; format: toxicity, cell-based
[11] = Subacute toxicity in Kunming mouse assessed as animal death at 50 mg/kg,po for 14 days; format: organism-based; conditions: in vivo, 336 h, time 14 day
[12] = Subacute toxicity in Kunming mouse assessed as body weight change at 50 mg/kg,po for 14 days; format: organism-based; conditions: in vivo, 336 h, time 14 day
[13] = Subacute toxicity in Kunming mouse assessed as lethargy at 50 mg/kg,po for 14 days; format: organism-based; conditions: in vivo, 336 h, time 14 day
[14] = Subacute toxicity in Kunming mouse assessed as anorexia at 50 mg/kg,po for 14 days; format: organism-based; conditions: in vivo, 336 h, time 14 day
[15] = Subacute toxicity in Kunming mouse assessed as ruffled fur at 50 mg/kg,po for 14 days; format: organism-based; conditions: in vivo, 336 h, time 14 day
[16] = Renal toxicity in Kunming mouse assessed as effect on BUN level at 50 mg/kg,po for 14 days; format: organism-based; conditions: in vivo, 336 h, time 14 day
[17] = Hepatotoxicity in Kunming mouse assessed as reduction in serum GSH level at 50 mg/kg, ip and incubated for 1 hr relative to control; format: toxicity, organism-based; design: scale not given: the % may be the effect or the level left; conditions: in vivo
[18] = Toxicity in Kunming mouse assessed as steatosis in liver at 50 mg/kg, po and measured after 14 days by HE staining based microscopy; format: organism-based; conditions: in vivo, 336 h, time 14 day
[19] = Toxicity in Kunming mouse assessed as appearance of normal tubular structure in kidney at 50 mg/kg, po administered and measured after 14 days by HE staining; format: organism-based; conditions: in vivo, 336 h, time 14 day
[20] = Toxicity in Kunming mouse assessed as appearance of normal glomerulus cells in kidney at 50 mg/kg, po administered and measured after 14 days by HE staining; format: organism-based; conditions: in vivo, 336 h, time 14 day
[21] = tested on: Mus musculus; assay: Anti-hyperuricemic activity against potassium oxonate induced hyperuricemia in Kunming mouse model assessed as decrease in serum urate level at 2 mg/kg, po and measured after 3 hrs; format: functional, organism-based
[22] = tested on: Mus musculus; assay: Anti-hyperuricemic activity against potassium oxonate induced hyperuricemia in Kunming mouse model assessed as decrease in serum urate level at 4 mg/kg, po and measured after 3 hrs; format: functional, organism-based
[23] = tested on: HepG2; assay: Cytotoxicity against human HepG2 cells assessed as reduction in cell viability upto 400 uM incubated for 24 hrs by MTT assay; format: toxicity, cell-based; conditions: hepg2, 24 h
[24] = Toxicity in Kunming mouse assessed as mild inflammatory infiltration in liver at 50 mg/kg, po and measured after 14 days by HE staining based microscopy; format: organism-based; conditions: in vivo, 336 h, time 14 day
[25] = Toxicity in Kunming mouse assessed as inflammatory infiltration in kidney at 50 mg/kg, po administered and measured after 14 days by HE staining; format: organism-based; conditions: in vivo, 336 h, time 14 day

**Q.** For `CCc1oc2ccccc2c1C(=O)c1cc(Br)c(O)c(Br)c1` [BENZBROMARONE], which inhibition [1] is on record?
**A.** 26%

**Q.** What about the Activity [2] of the same compound?
**A.** Non-Toxic

**Q.** And the IC50 [3]?
**A.** 340 nM

**Q.** And the Tmax [4]?
**A.** 0.63 h

**Q.** What about the Tmax [5] of the same compound?
**A.** 0.5 h

**Q.** And the half-life [6]?
**A.** 1.79 h

**Q.** What about the MRT inf [7] of the same compound?
**A.** 3.48 h

**Q.** What about the MRT inf [8] of the same compound?
**A.** 3.75 h

**Q.** What about the bioavailability [9] of the same compound?
**A.** 36.1%

**Q.** And the inhibition at 72 h, 400 µM [10]?
**A.** 40.1%

**Q.** And the Activity [11]?
**A.** Non-Toxic

**Q.** What about the Activity [12] of the same compound?
**A.** Non-Toxic

**Q.** What about the Activity [13] of the same compound?
**A.** Non-Toxic

**Q.** What about the Activity [14] of the same compound?
**A.** Non-Toxic

**Q.** And the Activity [15]?
**A.** Non-Toxic

**Q.** And the Activity [16]?
**A.** Non-Toxic

**Q.** And the Activity [17]?
**A.** 74.29%

**Q.** And the Activity [18]?
**A.** Non-Toxic

**Q.** And the Activity [19]?
**A.** Non-Toxic

**Q.** What about the Activity [20] of the same compound?
**A.** Non-Toxic

**Q.** What about the Activity [21] of the same compound?
**A.** Active

**Q.** And the Activity [22]?
**A.** Active

**Q.** What about the Activity [23] of the same compound?
**A.** Toxic

**Q.** And the Activity [24]?
**A.** Toxic

**Q.** What about the Activity [25] of the same compound?
**A.** Toxic
